In the supplement of paper PMC10949913:

Assays:
Details in all cases: 48 h
CU-ACC1 [1] = test: AC50 viability; higher = less potent
In short: (§1)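 Three adrenocortical carcinoma cell lines were plated in 1,536-well plates at 500–1,000 cells/well in 5 µL medium, and 23 nL of each library compound was added at 11 concentrations. After 48 h, CellTiter-Glo was applied for 15 minutes at room temperature before luminescence was read. Each plate's signals were normalised to vehicle and empty-well controls. AC50 and area under the curve were taken from fitted concentration-response curves, with only inhibitory or non-responding curve classes retained.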

NCI-H295R [2] = test: AC50 viability; higher = less potent
In short: as §1

CU-ACC1 [3] = test: area under concentration-response curve (viability) (AUC (a.u.)); higher = less active
In short: as §1

CU-ACC2 = test: as above
In short: as §1

NCI-H295R [4] = test: as above
In short: as §1

Row | Structure (SMILES) | AC50 viability (CU-ACC1 [1]) [µM] | AC50 viability (NCI-H295R [2]) [µM] | area under concentration-response curve (CU-ACC1 [3]) | area under concentration-response curve (CU-ACC2) | area under concentration-response curve (NCI-H295R [4])
1 | C=C(C)[C@H]1Cc2c(ccc3c2O[C@@H]2COc4cc(OC)c(OC)cc4[C@@H]2C3=O)O1 | 0.166 | 1.05 | 344 | 479 | 445
2 | N=C(N)c1ccc(OCCCCCOc2ccc(C(=N)N)cc2)cc1 | 13.2 | 14.8 | 437 | 561 | 453
3 | Cc1cnc(NC(=O)Nc2cc(Br)c(C)cc2OC[C@@H]2CNCCO2)cn1 | 6.61 | 4.68 | 486 | 613 | 524
4 | C[C@@H](C(=O)Nc1ccc(Cl)cc1)[C@H]1CC[C@@H](c2ccnc3ccc(F)cc32)CC1 | 29.5 | 16.6 | 488 | 626 | 564
5 | CC(C)(C)c1[nH]cnc1/C=c1\[nH]c(=O)/c(=C/c2ccccc2)[nH]c1=O | 18.6 | 0.0372 | 490 | 398 | 434
6 | CC[C@@H](C)Nc1cc(C(=O)NC2CC3CCC(C2)N3c2ccc(C(=O)C3CC3)cn2)c(C)cc1C(N)=O (stereo partly specified) | 1.32 | 0.934 | 346 | 436 | 382
7 | CCN(CCO)CCCOc1ccc2c(Nc3cc(CC(=O)Nc4cccc(F)c4)[nH]n3)ncnc2c1 | 23.5 | 16.6 | 390 | 569 | 483
8 | COc1cc(/C=C/C(=O)CC(=O)/C=C/c2ccc(O)c(OC)c2)ccc1O | 23.5 | 26.3 | 548 | 591 | 545
9 | NC(=O)c1ccccc1Nc1ccnc(Nc2cccc(O)c2)n1 | 20.9 | 2.63 | 465 | 553 | 462
10 | C[C@H](NC(=O)c1sccc1OCc1ccc(Cl)cc1)c1ccccc1 | 10.5 | 20.9 | 456 | 571 | 504
11 | CC/1=C/C(=O)N(O)/C(=C1)C2CCCCC2 | 10.5 | 7.42 | 505 | 570 | 528
12 | Cc1cccc(CN2CCN(C(c3ccccc3)c3ccc(Cl)cc3)CC2)c1 (stereo unspecified) | 13.2 | 16.6 | 422 | 534 | 495
13 | Cc1ccc([S+](=O)([O-])Cc2nc(-c3ccc(C(=O)NCc4cccnc4)cc3)oc2C)cc1 | 0.0742 | 0.263 | 290 | 402 | 379
14 | Cc1nc(-c2cn3c(n2)-c2ccc(-c4cnn(C(C)(C)C(N)=O)c4)cc2OCC3)n(C(C)C)n1 | 0.132 | 0.934 | 414 | 528 | 458
15 | ONC(=O)C1=CC=C(C=C1)C/2=N/C3=CC=CC=C3OC4=C2C=CC=C4 | 16.6 | 16.6 | 362 | 507 | 557
16 | CCC[S+](=O)([O-])c1nc(NC2CC2)cc(-c2ccc3c(ccn3C3CC(C)(C)NC(C)(C)C3)c2)n1 | 3.93 | 3.12 | 490 | 580 | 530
17 | COc1cc2ncnc(Nc3cccc(Cl)c3)c2cc1OC | 13.2 | 20.9 | 558 | 610 | 562
18 | COc1cc(OC)cc(N2CCN(C(=O)Nc3nc4cc(F)ccc4nc3OC)CC2)c1 | 23.5 | 16.6 | 503 | 556 | 454
19 | Cc1cc(Nc2ncnc3ccc(-c4ccc(CNCC[S+](C)(=O)[O-])o4)cc23)ccc1Oc1ccn2ncnc2c1 | 23.5 | 8.33 | 386 | 355 | 392
20 | Cc1ccc(C(C)(O)c2nc3ccccc3s2)c(C)c1 (stereo unspecified) | 8.33 | 16.6 | 421 | 511 | 464
21 | O=C1NC(=O)[C@@H](c2c[nH]c3ccccc23)[C@H]1c1cn2c3c(cccc13)CCC2 | 20.9 | 0.59 | 494 | 611 | 504

Row | Structure (SMILES) | AC50 viability (CU-ACC1 [1]) [µM] | AC50 viability (NCI-H295R [2]) [µM] | area under concentration-response curve (CU-ACC1 [3]) | area under concentration-response curve (CU-ACC2) | area under concentration-response curve (NCI-H295R [4])
22 | Fc1ccc(-c2csc3ncnc(NCc4ccc5c(c4)OCO5)c23)cc1 | 3.32 | 20.9 | 390 | 532 | 427
23 | COc1cc(OC)cc(N(CCNC(C)C)c2ccc3ncc(-c4cnn(C)c4)nc3c2)c1 | 23.5 | 18.6 | 499 | 603 | 526
24 | CCNC(=O)C[C@@H]1\N=C(C2=CC=C(Cl)C=C2)/C3=C(C=CC(=C3)OC)[N]4C(=NN=C14)C | 13.2 | 8.33 | 423 | 500 | 457
25 | NCCCN([C@H](CC#C)C/1=N/C2=C(C=CC(=C2)Cl)C(=O)N1NC3=CC=CC=C3)C(=O)C4=CC=CC(=C4F)Cl | 33.2 | 20.9 | 429 |  | 484
26 | Clc1ccc(C(c2ccccc2Cl)C(Cl)Cl)cc1 (stereo unspecified) | 18.6 | 20.9 | 426 |  | 432
27 | Cl.Cl.Cl.O[C@@H](COc1cccc2ncccc12)CN1CCN([C@@H]2c3ccccc3[C@@H]3[C@H](c4ccccc42)C3(F)F)CC1 | 23.5 | 16.6 | 515 |  | 490
28 | CN(C)CCCN1c2ccccc2CCc2ccc(Cl)cc21 | 18.6 | 23.5 | 473 |  | 535
29 | CCC(CC)C(c1ccc(Nc2nc3ccccc3s2)cc1)n1cncn1 (stereo unspecified) | 29.5 | 20.9 | 451 |  | 474
30 | CCNc1cc(NC2CCC(O)CC2)nc(Nc2ccc3c(ccn3Cc3ccccc3)c2)n1 (stereo unspecified) | 0.0235 | 1.18 | 149 |  | 156
31 | COc1cc(N2CCN(C)CC2)ccc1Nc1ncc2c(n1)N(C)c1ccccc1C(=O)N2 | 16.6 | 23.5 | 479 |  | 492
32 | NCC1CCN(c2nccc(-c3ccc4ccccc4c3)n2)CC1 | 23.5 | 16.6 | 477 |  | 492
33 | C[C@@H](NCCCc1cccc(C(F)(F)F)c1)c1cccc2ccccc12 | 10.5 | 13.2 | 467 |  | 501
34 | ClC1=CC=C(CCCOC/2=N/NC(=O)C(=C2NCC3=CN=CC=C3)/Br)C=C1 | 3.72 | 10.5 | 358 |  | 457
35 | NC(=O)c1cccc(-c2cc(Nc3ccc(OC(F)(F)F)cc3)ncn2)c1 | 16.6 | 20.9 | 488 |  | 538
36 | O=C(Nc1cccnn1)N1CCC(=Cc2cccc(Oc3ccc(C(F)(F)F)cn3)c2)CC1 | 20.9 | 20.9 | 361 |  | 445
37 | O=C(C(c1ccccc1)c1ccccc1)N1CCN(CC(O)COc2cccc3ncccc23)CC1 (stereo unspecified) | 23.5 | 16.6 | 467 |  | 524
38 | Cc1cccc(-c2n[nH]cc2-c2ccc(F)c(-c3cnn(CCO)c3)c2)n1 | 5.25 | 13.2 | 284 |  | 308
39 | O=C(NCCCNc1nc(Nc2ccc(N3CCOCC3)cc2)ncc1C1CC1)C1CCC1 | 2.63 | 14.8 | 379 |  | 460
40 | COc1ccc(Cl)c(Nc2ncnc3cc(OCC4CCN(C)CC4)c(OC)cc23)c1 | 23.5 | 26.3 | 513 |  | 581
41 | CC[C@H](C)[N]1C=C(C)C2=C1C=C(C=C2C(=O)NC\C3=C(C)\C=C(\C)NC3=O)C4=CC=C(N=C4)N5CCNCC5 | 18.6 | 23.5 | 449 |  | 493
42 | [2H]C([2H])(Nc1nc(-c2ccccc2C([2H])(C([2H])([2H])[2H])C([2H])([2H])[2H])ncc1C)c1ccc(-n2ccnn2)cc1 | 16.6 | 9.34 | 469 |  | 531

Row | Structure (SMILES) | AC50 viability (CU-ACC1 [1]) [µM] | AC50 viability (NCI-H295R [2]) [µM] | area under concentration-response curve (CU-ACC1 [3]) | area under concentration-response curve (CU-ACC2) | area under concentration-response curve (NCI-H295R [4])
43 | Cc1c(C(=O)NN2CCCCC2)nn(-c2ccc(Cl)cc2Cl)c1-c1ccc(Cl)cc1 | 20.9 | 18.6 | 396 |  | 433
44 | CCN1CCN(Cc2ccc(NC(=O)c3ccc(C)c(/C=C/c4cnc5[nH]ccc5c4OC)c3)cc2C(F)(F)F)CC1 | 9.34 | 7.42 | 461 |  | 471
45 | CCCC\1=C(/CNC(=O)C2=CC(=CC3=C2C=N[N]3C(C)C)C4=CC(=NC=C4)N5CCN(C)CC5)C(=O)NC(=C1)\C | 18.6 | 18.6 | 478 |  | 501
46 | Cc1c(-c2ccc(O)cc2)n(Cc2ccc(OCCN3CCCCCC3)cc2)c2ccc(O)cc12 | 29.5 | 23.5 | 496 |  | 508
47 | CCN1CCC(n2cc(CNc3cc(Cl)c4ncc(C#N)c(Nc5ccc(F)c(Cl)c5)c4c3)nn2)CC1 | 16.6 | 23.5 | 456 |  | 494
48 | COc1cc(C(=O)NC2CCN(C)CC2)ccc1Nc1ncc2c(n1)N(C1CCCC1)CCC(=O)N2C(C)C | 26.3 | 23.5 | 504 |  | 538
49 | Cc1[nH]c(/C=C2\C(=O)Nc3ccc([S+](=O)([O-])N(C)c4cccc(Cl)c4)cc32)c(C)c1C(=O)N1CCN(C)CC1 | 20.9 | 33.2 | 397 |  | 491
50 | C[C@@H]\1COC(=N1)\NC2=CC3=C(C=C2)N=CN=C3NC4=CC(=C(OCC5=NC=CS5)C=C4)Cl | 20.9 | 41.7 | 509 |  | 522
51 | O=C1Nc2ccc(Cl)cc2[C@@](C#CC2CC2)(C(F)(F)F)O1 | 29.5 | 20.9 | 471 |  | 504
52 | CCOC(CN1C(=O)[C@](CC(=O)Nc2ccc(C)cc2)(NC(=O)Nc2ccc(C)cc2)c2ccccc21)OCC | 37.2 | 29.5 | 432 |  | 537
53 | COC1=CC=C2[N](CCCN(C)C)C=C(C2=C1)C/3=C(/C(=O)NC3=O)C4=C[NH]C5=C4C=CC=C5 | 26.3 | 26.3 | 514 |  | 547
54 | NC(=O)N1CCC(CC(=O)N2CCC([C@H]3c4ncc(Br)cc4CCc4cc(Cl)cc(Br)c43)CC2)CC1 | 37.2 | 23.5 | 440 |  | 440
55 | Nc1ccc(F)cc1NC(=O)c1ccc(CNC(=O)/C=C/c2cccnc2)cc1 | 9.34 | 8.33 | 341 |  | 433
56 | O=[N+]([O-])c1ccc(O)c2ncccc12 | 11.8 | 11.8 | 482 |  | 483
57 | C[S+](=O)([O-])CCNCc1ccc(-c2ccc3ncnc(Nc4ccc(OCc5cccc(F)c5)c(Cl)c4)c3c2)o1 | 23.5 | 20.9 | 420 |  | 456
58 | CN(C)CCCNC(=O)c1ccc(-c2cc(O)c3ncccc3c2)cc1 | 16.6 | 0.332 | 376 |  | 360
59 | CCC(=O)O[C@@]1([C@@H](C)C[C@H]2[C@@H]3CCC/4=C/C(=O)/C=C\[C@]4(C)[C@@]3(F)[C@@H](O)C[C@]12C)C(=O)CCl | 20.9 | 20.9 | 475 |  | 503
60 | CN1CCN(CCCN2c3ccccc3Sc3ccc(C(F)(F)F)cc32)CC1 | 29.5 | 18.6 | 441 |  | 480
61 | COC(=O)C1=C(C)NC(C)=C(C(=O)OCCN2CCN(C(c3ccccc3)c3ccccc3)CC2)C1c1cccc([N+](=O)[O-])c1.Cl.Cl (stereo unspecified) | 20.9 | 11.8 | 462 |  | 497
62 | CN(C)C(=O)C(CCN1CCC(O)(c2ccc(Cl)cc2)CC1)(c1ccccc1)c1ccccc1 | 16.6 | 20.9 | 506 |  | 549
63 | NC(=O)c1ccc2nc(-c3ccc(C4(N)CCC4)cc3)c(-c3ccccc3)n2n1 | 18.6 | 16.6 | 483 |  | 465
